Counter-ions that a name gives are not always drawn.
Row | Compound | melting point
1 | Cl.O=C(CCCCNCCc1ccccc1)c1cc2c3c(c1)CCN3C(=O)CC2 | 166 to 168 °C
2 | CN(CCCCC(=O)c1ccc2[nH]c(=O)[nH]c2c1)CCc1ccccc1.Cl | 240 °C
3 | COc1ccccc1CCN(C)CCCCC(=O)c1ccc2[nH]c(=O)[nH]c2c1.Cl | 169 to 180 °C (dec.)
4 | CN(CCCCC(=O)c1ccc2c(c1)n(C)c(=O)n2C)CCc1ccccc1.Cl | 142 to 157 °C (dec.)
5 | COc1ccccc1CCN(C)CCCCC(=O)c1ccc2c(c1)n(C)c(=O)n2C.Cl | 125 to 140 °C (dec.)
6 | Cl.O=C(CCCCNCCc1ccccc1Cl)c1ccc2[nH]c(=O)[nH]c2c1 | 233 °C
7 | Cl.Cn1c(=O)n(C)c2cc(C(=O)CCCCNCCc3ccccc3)ccc21 | 187 to 189 °C
8 | COc1ccc(CCNCCCCC(=O)c2cc3c4c(c2)CCN4C(=O)CC3)cc1.Cl | 179 to 181 °C
9 | Cl.O=C(CCCCNCCc1ccc(Cl)cc1)c1cc2c3c(c1)CCN3C(=O)CC2 | 193 to 195 °C
10 | Cl.O=C(CCCCNCCc1ccccc1O)c1cc2c3c(c1)CCN3C(=O)CC2 | 112 to 113 °C
11 | Cl.O=C(CCCCNCCc1c(Cl)cccc1Cl)c1cc2c3c(c1)CCN3C(=O)CC2 | 171 to 174 °C
12 | COc1cccc(CCNCCCCC(=O)c2cc3c4c(c2)CCN4C(=O)CC3)c1OC.Cl | 154 to 156 °C
13 | COc1ccc(C(=O)CCCCNCCc2ccccc2)cc1S(N)(=O)=O.Cl | 160 to 168 °C
14 | COc1ccccc1CCNCCCCC(=O)c1ccc(OC)c(S(N)(=O)=O)c1.Cl | 139 to 141 °C
15 | COc1ccc(C(=O)CCCCNCCc2ccccc2Cl)cc1S(N)(=O)=O.Cl | 161 to 163 °C
16 | COc1ccccc1CCNCCCCC(=O)c1ccc(OC)c(S(=O)(=O)NC(C)C)c1.Cl | 164 to 166 °C
17 | COc1ccc(C(=O)CCCCNCCc2ccccc2Cl)cc1S(=O)(=O)NC(C)C.Cl | 179 to 181 °C
18 | Cl.NS(=O)(=O)c1cc(C(=O)CCCCNCCc2ccccc2Cl)cc2c1OCC2 | 160 to 170 °C
19 | COc1ccccc1CCNCCCCC(=O)c1cc2c(c(S(=O)(=O)NC(C)C)c1)OCC2.Cl | 157 to 159 °C
20 | CC(C)NS(=O)(=O)c1cc(C(=O)CCCCNCCc2ccccc2Cl)cc2c1OCC2.Cl | 149 to 151 °C
21 | Cl.NS(=O)(=O)c1cc(C(=O)CCCCNCCc2ccccc2)cc2c1OCCO2 | 152 to 154 °C
22 | COc1ccccc1CCNCCCCC(=O)c1cc2c(c(S(N)(=O)=O)c1)OCCO2.Cl | 166 to 168 °C

Row | Compound | melting point
23 | Cl.NS(=O)(=O)c1cc(C(=O)CCCCNCCc2ccccc2Cl)cc2c1OCCO2 | 178 to 180 °C
24 | COc1ccc(C(=O)CCCCNCCc2ccccc2)cc1NS(C)(=O)=O.Cl | 131 to 133 °C
25 | COc1ccccc1CCNCCCCC(=O)c1ccc(OC)c(NS(C)(=O)=O)c1.Cl | 129 to 131 °C
26 | COc1ccc(C(=O)CCCCNCCc2ccccc2Cl)cc1NS(C)(=O)=O.Cl | 133 to 135 °C
27 | COc1ccc(C(=O)CCCCCNCCc2ccccc2)cc1NS(C)(=O)=O.Cl | 136 to 138 °C
28 | COc1ccccc1CCNCCCCCC(=O)c1ccc(OC)c(NS(C)(=O)=O)c1.Cl | 142 to 144 °C
29 | COc1ccc(C(=O)CCCCCNCCc2ccccc2Cl)cc1NS(C)(=O)=O.Cl | 112 to 115 °C
30 | COc1ccccc1CCNCCCCC(=O)c1c[nH]c2ccccc12.Cl | 143 to 145 °C
31 | Cl.O=C(CCCCNCCc1ccccc1Cl)c1c[nH]c2ccccc12 | 149 to 151 °C
32 | Cl.O=C(CCCCCNCCc1ccccc1Cl)c1c[nH]c2ccccc12 | 151 to 153 °C
33 | COc1ccccc1CCNCCCCC(=O)c1cccs1.Cl | 101 to 103 °C
34 | Cl.O=C(CCCCNCCc1ccccc1Cl)c1cccs1 | 146 to 147 °C
35 | COc1ccccc1CCNCCCCCC(=O)c1cccs1.Cl | 107 to 109 °C
36 | Cl.O=C(CCCCCNCCc1ccccc1Cl)c1cccs1 | 149 to 151 °C
37 | Cl.O=C1CCc2cc(C(=O)[C@H]3CC[C@H](CNCCc4ccccc4Cl)CC3)cc3c2N1CC3 | 271 °C
38 | COc1ccccc1CCNCCCCC(=O)c1cc2c3c(c1)CCN3C(=O)CC2.Cl | 94 to 96 °C
39 | COc1cccc(CCNCCCCCC(=O)c2cc3c4c(c2)CCN4C(=O)CC3)c1.Cl | 136 to 138 °C
40 | COc1ccc(CCNCCCCCC(=O)c2cc3c4c(c2)CCN4C(=O)CC3)cc1.Cl | 179 to 180 °C
41 | Cl.O=C(CCCCCNCCc1ccccc1Cl)c1cc2c3c(c1)CCN3C(=O)CC2 | 172 to 174 °C
42 | CN(CCCCCC(=O)c1cc2c3c(c1)CCN3C(=O)CC2)CCc1ccccc1.Cl | 83 to 85 °C
43 | COc1cccc(CCN(C)CCCCCC(=O)c2cc3c4c(c2)CCN4C(=O)CC3)c1.Cl | 116 to 118 °C
44 | Cl.O=C1NCc2cc(C(=O)CCCCNCCc3ccccc3)ccc2N1 | 199 to 205 °C (dec.)

Row | Compound | melting point
45 | COc1ccccc1CCNCCCCC(=O)c1ccc2c(c1)CNC(=O)N2.Cl | 176 to 180 °C (dec.)
46 | Cl.O=C1NCc2cc(C(=O)CCCCNCCc3ccccc3Cl)ccc2N1 | 176 to 185 °C (dec.)
47 | CN(CCCCC(=O)c1ccc2c(c1)CNC(=O)N2)CCc1ccccc1.Cl | 164 to 166 °C
48 | COc1ccccc1CCN(C)CCCCC(=O)c1ccc2c(c1)CNC(=O)N2.Cl | 170 to 171 °C (dec.)
49 | CN(CCCCC(=O)c1ccc2c(c1)CNC(=O)N2)CCc1ccccc1Cl.Cl | 192 to 195 °C (dec.)
50 | CN(CCCCC(=O)c1ccc2c(c1)CN(C)C(=O)N2C)CCc1ccccc1.Cl | 174 to 176 °C
51 | COc1ccccc1CCN(C)CCCCC(=O)c1ccc2c(c1)CN(C)C(=O)N2C.Cl | 145 to 146 °C
52 | CN(CCCCC(=O)c1ccc2c(c1)CN(C)C(=O)N2C)CCc1ccccc1Cl.Cl | 187 to 188 °C
53 | COc1ccccc1CCNCCCC(=O)c1cc2c3c(c1)CCN3C(=O)CC2.Cl | 165 to 167 °C
54 | COc1cccc(CCNCCCCC(=O)c2cc3c4c(c2)CCN4C(=O)CC3)c1.Cl | 97 to 100 °C
55 | Cl.O=C(CCCCCNCc1ccccc1)c1cc2c3c(c1)CCN3C(=O)CC2 | 181 to 183 °C
56 | COc1ccccc1CCN1CCC(CCC(=O)c2cc3c4c(c2)CCN4C(=O)CC3)CC1.Cl | 209 to 211 °C
57 | COc1cccc(CCN2CCC(CCC(=O)c3cc4c5c(c3)CCN5C(=O)CC4)CC2)c1.Cl | 240 to 242 °C
58 | COc1ccc(CCN2CCC(CCC(=O)c3cc4c5c(c3)CCN5C(=O)CC4)CC2)cc1.Cl | 141 to 143 °C
59 | CCOc1ccccc1CCN1CCC(CCC(=O)c2cc3c4c(c2)CCN4C(=O)CC3)CC1.Cl | 182 to 184 °C
60 | Cl.O=C(CCC1CCN(CCc2ccccc2O)CC1)c1cc2c3c(c1)CCN3C(=O)CC2 | 220 to 222 °C
61 | Cc1cccc(CCN2CCC(CCC(=O)c3cc4c5c(c3)CCN5C(=O)CC4)CC2)c1.Cl | 197 to 199 °C
62 | Cl.O=C(CCC1CCN(CCc2ccccc2Cl)CC1)c1cc2c3c(c1)CCN3C(=O)CC2 | 207 to 210 °C
63 | Cl.O=C(CCC1CCN(CCc2ccc(Cl)cc2)CC1)c1cc2c3c(c1)CCN3C(=O)CC2 | 204 to 206 °C
64 | Cl.O=C(CCC1CCN(CCc2ccc([N+](=O)[O-])cc2)CC1)c1cc2c3c(c1)CCN3C(=O)CC2 | 217 to 219 °C
65 | Cl.O=C(CCC1CCN(CCc2c(Cl)cccc2Cl)CC1)c1cc2c3c(c1)CCN3C(=O)CC2 | 226 to 229 °C
66 | Cl.O=C(CCC1CCN(CCc2c[nH]c3ccccc23)CC1)c1cc2c3c(c1)CCN3C(=O)CC2 | 157 to 159 °C

Row | Compound | melting point
67 | Cl.O=C(CCC1CCN(CC(=O)c2ccccc2)CC1)c1cc2c3c(c1)CCN3C(=O)CC2 | 114 to 116 °C
68 | CCOc1ccccc1OCCN1CCC(CCC(=O)c2ccc(OC)c(NC(C)=O)c2)CC1.Cl | 127 to 129 °C
69 | Cl.O=C(CCCN1CCCc2ccccc2C1)c1cc2c3c(c1)CCN3C(=O)CC2 | 230 to 232 °C
70 | COc1ccc2c(c1)CCCN(CCCC(=O)c1cc3c4c(c1)CCN4C(=O)CC3)C2.Cl | 121 to 123 °C
71 | Cl.O=C(CCCCNC1Cc2ccccc2C1)c1cc2c3c(c1)CCN3C(=O)CC2 | 187 to 189 °C
72 | COc1cc2c(cc1OC)CN(CCCCC(=O)c1cc3c4c(c1)CCN4C(=O)CC3)CC2.Cl | 215 to 217 °C
73 | COc1cc2c(cc1OC)CN(CCCCCC(=O)c1cc3c4c(c1)CCN4C(=O)CC3)CC2.Cl | 216 to 218 °C
74 | Cl.O=C(CCCCCN1CCc2ccccc2CC1)c1cc2c3c(c1)CCN3C(=O)CC2 | 222 to 225 °C
75 | Cl.O=C(CCCCNCCCc1ccccc1)c1cc2c3c(c1)CCN3C(=O)CC2 | 116 to 118 °C
76 | COc1ccccc1CCNCCCCC(=O)c1cc2c3c(c1)CC(=O)N3CCC2.Cl | 169 to 170 °C
77 | Cl.O=C(CCCCNCCc1ccccc1Cl)c1cc2c3c(c1)CCN3C(=O)CC2 | 128 to 130 °C
78 | Cl.O=C(CCCCNCCc1cccc(F)c1)c1cc2c3c(c1)CCN3C(=O)CC2 | 172 to 173 °C
79 | COc1ccc(CCNCCCCC(=O)c2cc3c4c(c2)CCN4C(=O)CC3)cc1S(N)(=O)=O.Cl | 145 °C (dec.)
80 | Cl.O=C(CCCCCN1CCCc2ccccc2C1)c1cc2c3c(c1)CCN3C(=O)CC2 | 195 to 197 °C
81 | Cc1ccccc1CCN1CCC(CCC(=O)c2cc3c4c(c2)CCN4C(=O)CC3)CC1.Cl | 215 to 216 °C
82 | Cl.O=C(CCC1CCN(CCc2ccccc2F)CC1)c1cc2c3c(c1)CCN3C(=O)CC2 | 210 to 212 °C
83 | Cl.O=C(CCC1CCN(CCc2cccc(Cl)c2)CC1)c1cc2c3c(c1)CCN3C(=O)CC2 | 223 to 225 °C
84 | Cl.O=C(CCC1CCN(C2Cc3ccccc3C2)CC1)c1cc2c3c(c1)CCN3C(=O)CC2 | 290 °C (dec.)
85 | Cl.O=C(CCC1CCN(CCCc2ccccc2)CC1)c1cc2c3c(c1)CCN3C(=O)CC2 | 173 to 175 °C
86 | CCOc1ccccc1OCCN1CCC(CCC(=O)c2ccc(OC)c(N)c2)CC1 (as salt: hydrochloride) | 123 to 125 °C
87 | O=C(CCC1CCN(CCc2ccccc2)CC1)c1cc2c3c(c1)CCN3C(=O)CC2 (as salt: hydrochloride) | 219 to 221 °C
88 | Cl.O=C(CCCCNC1CCc2ccccc21)c1cc2c3c(c1)CCN3C(=O)CC2 (racemic) | 98 to 100 °C
